{
  "source": "patent US7304075B2",
  "about": "“Stabilized liquid preparation” (Daiichi Pharmaceutical Co., Ltd., priority 2001, dated 2007)",
  "format_in_all_cases": "physicochemical",
  "key": {"[1]": {"test": "Light stability of aqueous sitafloxacin solution (white fluorescent tube irradiation)", "settings": "sodium chloride-containing aqueous solution adjusted to pH 4.0, versus aqueous solutions without sodium chloride"}, "[2]": {"test": "Water solubility of free sitafloxacin", "settings": "around a neutral pH"}, "[3]": {"test": "Light stability of aqueous sitafloxacin solution (white fluorescent tube irradiation)", "settings": "1 mg/ml aqueous solution; for Transmission (%): T % at 430 nm", "method": "To 160 ml of WFI were added 213.2 mg of sitafloxacin (active ingredient: 200 mg) and a varied amount of sodium chloride (0 mg for control, 20 mg, 100 mg, 200 mg, 1 g, 2 g, 4 g, 6 g or 10 g) or, for comparison, 10 g of D-sorbitol. Further, 5 ml of 0.1 mol/l aqueous hydrochloric acid was slowly added, followed by stirring for 30 mintues to dissolve sitafloxacin and sodium chloride. The nine kinds of solution each was adjusted to pH 4.0 by addition of 0.1 mol/l aqueous sodium hydroxide, and WFI was added to make 200 ml. Ten milliliter portions of the resulting aqueous solution were put into colorless ampules.\n• (1) pH: Measured with a pH meter (F-16, supplied by Horiba, Ltd.). • (2) Osmotic pressure: Measured with an osmometer (3C2, supplied by Advanced Instrument, Inc.). • (3) (Light) Transmission: A transmission at 430 nm was measured with a Beckman DU-640 spectrophotometer. • (4) Retention: The content of sitafloxacin of the irradiated samples was determined as follows to calculate retention (%).\nA test solution was prepared by accurately measuring 2 ml of a sample, adding an accurately measured equal amount of an internal standard solution, adding a mobile phase to make 20 ml, and mixing a 5 ml aliquot of the resulting solution with the mobile phase to make 20 ml.\nA standard sitafloxacin solution was prepared by dissolving sitafloxacin for quantitative analysis (whose water content had been measured previously) precisely weighing about 0.1 g in the mobile phase to make a solution accurately measuring 100 ml, adding to an accurate 5 ml aliquot of the solution an accurately measured equal amount of the internal standard solution, adding the mobile phase to make 100 ml, and after thoroughly stirring, filtering the solution through a membrane filter. The test solution and the standard solution each measuring 10 μl were subjected to liquid chromatography under the following conditions. Ratios of the peak areas of sitafloxacin of the test solution or the standard solution to the peak area of the internal standard, QT and QS, were obtained, and the sitafloxacin content was determined according to the following equation. Sitafloxacin (C19H18ClF2N3O3) content (% to nominal amount)=amount (mg) of sitafloxacin for quantitative analysis (on dry basis)×(QT/QS)×(¼)×( 1/25)×100 wherein;\nA standard solution was prepared by weighing 0.100 g of sitafloxacin for quantitative analysis (whose water content had been measured previously), adding a mobile phase to accurately make 100 ml, and adding the mobile phase to an accurately measured aliquot (1 ml) of the solution to make 100 ml.\nA 10 μl aliquot of a sample and the standard solution was subjected to liquid chromatography under the following conditions, and the peak areas of the respective solutions were calculated by automatic integration to obtain the total content of sitafloxacin related substances.\nEach of the 1 mg/ml aqueous solutions of sitafloxacin was irradiated with light of a white fluorescent tube (2500 lux×5 days: 300,000 lux·hr), and the same measurements as described above were repeated."}, "[4]": {"settings": "Initial, 5% D-sorbitol in place of sodium chloride"}, "[5]": {"settings": "Irradiated (300,000 lux·hr), 5% D-sorbitol in place of sodium chloride"}, "[6]": {"settings": "Irradiated (300,000 lux·hr), NaCl 0%"}, "[7]": {"settings": "Irradiated (300,000 lux·hr), NaCl 0.01%"}, "[8]": {"settings": "Irradiated (300,000 lux·hr), NaCl 0.05%"}, "[9]": {"settings": "Irradiated (300,000 lux·hr), NaCl 0.10%"}, "[10]": {"settings": "Irradiated (300,000 lux·hr), NaCl 0.50%"}, "[11]": {"settings": "Irradiated (300,000 lux·hr), NaCl 1.0%"}, "[12]": {"settings": "Irradiated (300,000 lux·hr), NaCl 2.0%"}, "[13]": {"settings": "Irradiated (300,000 lux·hr), NaCl 3.0%"}, "[14]": {"settings": "Irradiated (300,000 lux·hr), NaCl 5.0%"}},
  "data": [
    {"molecule": "N[C@@H]1CN(c2c(F)cc3c(=O)c(C(=O)O)cn([C@@H]4C[C@@H]4F)c3c2Cl)CC12CC2", "note": "[sitafloxacin, (−)-7-[(7S)-7-amino-5-azaspiro[2.4]heptan-5-yl]-8-chloro-6-fluoro-1-[(1R,2S)-2-fluoro-1-cyclopropyl]-1,4-dihydro-4-oxo-3-quinolinecarboxylic acid]", "values": [
      {"measurement": "formation of related substances due to irradiation or the reduction in pH", "setting": "[1]", "result": "more suppressed"},
      {"measurement": "water solubility", "setting": "[2]", "result": "poor"},
      {"measurement": "Total Related substances (%)", "setting": "[3]; [4]", "result": 0.30, "unit": "%"},
      {"measurement": "pH", "setting": "[3]; [4]", "result": 4.3},
      {"measurement": "Transmission (%)", "setting": "[3]; [4]", "result": 77.2, "unit": "%"},
      {"measurement": "Total Related substances (%)", "setting": "[3]; Initial, NaCl 0%", "result": 0.31, "unit": "%"},
      {"measurement": "pH", "setting": "[3]; Initial, NaCl 0%", "result": 4.2},
      {"measurement": "Transmission (%)", "setting": "[3]; Initial, NaCl 0%", "result": 77.6, "unit": "%"},
      {"measurement": "Total Related substances (%)", "setting": "[3]; Initial, NaCl 0.01%", "result": 0.30, "unit": "%"},
      {"measurement": "pH", "setting": "[3]; Initial, NaCl 0.01%", "result": 4.4},
      {"measurement": "Transmission (%)", "setting": "[3]; Initial, NaCl 0.01%", "result": 77.1, "unit": "%"},
      {"measurement": "Total Related substances (%)", "setting": "[3]; Initial, NaCl 0.05%", "result": 0.29, "unit": "%"},
      {"measurement": "pH", "setting": "[3]; Initial, NaCl 0.05%", "result": 4.3},
      {"measurement": "Transmission (%)", "setting": "[3]; Initial, NaCl 0.05%", "result": 76.8, "unit": "%"},
      {"measurement": "Total Related substances (%)", "setting": "[3]; Initial, NaCl 0.10%", "result": 0.26, "unit": "%"},
      {"measurement": "pH", "setting": "[3]; Initial, NaCl 0.10%", "result": 4.3},
      {"measurement": "Transmission (%)", "setting": "[3]; Initial, NaCl 0.10%", "result": 76.7, "unit": "%"},
      {"measurement": "Total Related substances (%)", "setting": "[3]; Initial, NaCl 0.50%", "result": 0.28, "unit": "%"},
      {"measurement": "pH", "setting": "[3]; Initial, NaCl 0.50%", "result": 4.2},
      {"measurement": "Transmission (%)", "setting": "[3]; Initial, NaCl 0.50%", "result": 75.6, "unit": "%"},
      {"measurement": "Total Related substances (%)", "setting": "[3]; Initial, NaCl 1.0%", "result": 0.30, "unit": "%"},
      {"measurement": "pH", "setting": "[3]; Initial, NaCl 1.0%", "result": 4.3},
      {"measurement": "Transmission (%)", "setting": "[3]; Initial, NaCl 1.0%", "result": 74.7, "unit": "%"},
      {"measurement": "Total Related substances (%)", "setting": "[3]; Initial, NaCl 2.0%", "result": 0.31, "unit": "%"},
      {"measurement": "pH", "setting": "[3]; Initial, NaCl 2.0%", "result": 4.3},
      {"measurement": "Transmission (%)", "setting": "[3]; Initial, NaCl 2.0%", "result": 73.1, "unit": "%"},
      {"measurement": "Total Related substances (%)", "setting": "[3]; Initial, NaCl 3.0%", "result": 0.30, "unit": "%"},
      {"measurement": "pH", "setting": "[3]; Initial, NaCl 3.0%", "result": 4.3},
      {"measurement": "Transmission (%)", "setting": "[3]; Initial, NaCl 3.0%", "result": 72.8, "unit": "%"},
      {"measurement": "Total Related substances (%)", "setting": "[3]; Initial, NaCl 5.0%", "result": 0.30, "unit": "%"},
      {"measurement": "pH", "setting": "[3]; Initial, NaCl 5.0%", "result": 4.3},
      {"measurement": "Transmission (%)", "setting": "[3]; Initial, NaCl 5.0%", "result": 70.7, "unit": "%"},
      {"measurement": "Retention (per Initial %)", "setting": "[3]; [5]", "result": 86.6, "unit": "%"},
      {"measurement": "Total Related substances (%)", "setting": "[3]; [5]", "result": 5.90, "unit": "%"},
      {"measurement": "pH", "setting": "[3]; [5]", "result": 3.5},
      {"measurement": "Transmission (%)", "setting": "[3]; [5]", "result": 56.8, "unit": "%"},
      {"measurement": "Retention (per Initial %)", "setting": "[3]; [6]", "result": 84.2, "unit": "%"},
      {"measurement": "Total Related substances (%)", "setting": "[3]; [6]", "result": 5.90, "unit": "%"},
      {"measurement": "pH", "setting": "[3]; [6]", "result": 3.4},
      {"measurement": "Transmission (%)", "setting": "[3]; [6]", "result": 47.1, "unit": "%"},
      {"measurement": "Retention (per Initial %)", "setting": "[3]; [7]", "result": 87.9, "unit": "%"},
      {"measurement": "Total Related substances (%)", "setting": "[3]; [7]", "result": 5.21, "unit": "%"},
      {"measurement": "pH", "setting": "[3]; [7]", "result": 3.7},
      {"measurement": "Transmission (%)", "setting": "[3]; [7]", "result": 52.8, "unit": "%"},
      {"measurement": "Retention (per Initial %)", "setting": "[3]; [8]", "result": 91.7, "unit": "%"},
      {"measurement": "Total Related substances (%)", "setting": "[3]; [8]", "result": 3.84, "unit": "%"},
      {"measurement": "pH", "setting": "[3]; [8]", "result": 3.8},
      {"measurement": "Transmission (%)", "setting": "[3]; [8]", "result": 61.0, "unit": "%"},
      {"measurement": "Retention (per Initial %)", "setting": "[3]; [9]", "result": 93.5, "unit": "%"},
      {"measurement": "Total Related substances (%)", "setting": "[3]; [9]", "result": 3.02, "unit": "%"},
      {"measurement": "pH", "setting": "[3]; [9]", "result": 3.8},
      {"measurement": "Transmission (%)", "setting": "[3]; [9]", "result": 64.4, "unit": "%"},
      {"measurement": "Retention (per Initial %)", "setting": "[3]; [10]", "result": 94.2, "unit": "%"},
      {"measurement": "Total Related substances (%)", "setting": "[3]; [10]", "result": 2.48, "unit": "%"},
      {"measurement": "pH", "setting": "[3]; [10]", "result": 3.9},
      {"measurement": "Transmission (%)", "setting": "[3]; [10]", "result": 63.6, "unit": "%"},
      {"measurement": "Retention (per Initial %)", "setting": "[3]; [11]", "result": 94.7, "unit": "%"},
      {"measurement": "Total Related substances (%)", "setting": "[3]; [11]", "result": 2.02, "unit": "%"},
      {"measurement": "pH", "setting": "[3]; [11]", "result": 3.9},
      {"measurement": "Transmission (%)", "setting": "[3]; [11]", "result": 62.6, "unit": "%"},
      {"measurement": "Retention (per Initial %)", "setting": "[3]; [12]", "result": 94.0, "unit": "%"},
      {"measurement": "Total Related substances (%)", "setting": "[3]; [12]", "result": 2.30, "unit": "%"},
      {"measurement": "pH", "setting": "[3]; [12]", "result": 3.8},
      {"measurement": "Transmission (%)", "setting": "[3]; [12]", "result": 60.7, "unit": "%"},
      {"measurement": "Retention (per Initial %)", "setting": "[3]; [13]", "result": 95.5, "unit": "%"},
      {"measurement": "Total Related substances (%)", "setting": "[3]; [13]", "result": 2.01, "unit": "%"},
      {"measurement": "pH", "setting": "[3]; [13]", "result": 3.9},
      {"measurement": "Transmission (%)", "setting": "[3]; [13]", "result": 61.0, "unit": "%"},
      {"measurement": "Retention (per Initial %)", "setting": "[3]; [14]", "result": 94.8, "unit": "%"},
      {"measurement": "Total Related substances (%)", "setting": "[3]; [14]", "result": 2.28, "unit": "%"},
      {"measurement": "pH", "setting": "[3]; [14]", "result": 3.9},
      {"measurement": "Transmission (%)", "setting": "[3]; [14]", "result": 57.6, "unit": "%"}
    ]}
  ]
}
